Reference: US10238631B2, “Sesquiterpene derivatives and their use in inflammation or cancer treatment” (Academia Sinica, priority 2014, dated 2019)

Tested on: TS/A (ER+, Her2−) murine mammary cancer cells
Assay: MTT cell viability assay, TS/A cells
Assay type: cell-based
Conditions: Mus musculus, 24 h, read-out: IC50 on cell viability, TS/A (ER+, Her2−)
Protocol: (§1) Normal or cancer cells (2×10^3 to 1×10^4 cells/well) were seeded in 96-well plate for overnight and treated with different compounds for 24 h to 72 h. Cells growth were determined by MTT-based colorimetric assays according to. Viability of the test cells treated with vehicle (0.5% DMSO) only was defined as 100% viable. Survival of cells after treatment with DETDs was calculated using the following formula: viable cell number (%)=OD570 (treated cell culture)/OD570 (vehicle control)×100.
(§2) Sixty DETDs were derived from parental compound […] and tested for anti-breast cancer cell activity.

Compound | IC50 [µM]
C=C(C)C(=O)O[C@H]1CC2=C[C@@H](C/C(C)=C/[C@H]3OC(=O)[C@@H](CN(C)C)[C@H]13)OC2=O [DETD-1] | 6.2
C=C1C(=O)OC2CC3=C[C@@H](C/C(C)=C/C(OC(=O)C=C(C)C)[C@H]12)OC3=O (stereo partly drawn) [DETD-8] | 1.9
C=C1C(=O)OC2CC3=C[C@@H](C/C(C)=C/C(OC(=O)/C=C/c4ccc(OC)c(OC)c4)[C@H]12)OC3=O (stereo partly drawn) [DETD-49] | > 7.5

Tested on: MDA-MB-231 (ER−, PR−, Her2−) human breast cancer cells
Assay: MTT cell viability assay, MDA-MB-231 cells
Assay type: cell-based
Conditions: Homo sapiens, MDA-MB-231, 24 h, read-out: IC50 on cell viability, MDA-MB-231 (ER−, PR−, Her2−)
Protocol: as §1, §2

Compound | IC50 [µM]
C=C(C)C(=O)O[C@H]1CC2=C[C@@H](C/C(C)=C/[C@H]3OC(=O)[C@@H](CN(C)C)[C@H]13)OC2=O [DETD-1] | > 7.5
C=C1C(=O)OC2CC3=C[C@@H](C/C(C)=C/C(OC(=O)C=C(C)C)[C@H]12)OC3=O (stereo partly drawn) [DETD-8] | 6.7
C=C1C(=O)OC2CC3=C[C@@H](C/C(C)=C/C(OC(=O)/C=C/c4ccc(OC)c(OC)c4)[C@H]12)OC3=O (stereo partly drawn) [DETD-49] | 9.5

Tested on: MCF-7 (ER+, Her2−) human breast cancer cells
Assay: MTT cell viability assay, MCF-7 cells
Assay type: cell-based
Conditions: MCF7, 24 h, read-out: IC50 on cell viability, MCF-7 (ER+, Her2−)
Protocol: as §1, §2

Compound | IC50 [µM]
C=C(C)C(=O)O[C@H]1CC2=C[C@@H](C/C(C)=C/[C@H]3OC(=O)[C@@H](CN(C)C)[C@H]13)OC2=O [DETD-1] | > 7.5
C=C1C(=O)OC2CC3=C[C@@H](C/C(C)=C/C(OC(=O)C=C(C)C)[C@H]12)OC3=O (stereo partly drawn) [DETD-8] | 3.4
C=C1C(=O)OC2CC3=C[C@@H](C/C(C)=C/C(OC(=O)/C=C/c4ccc(OC)c(OC)c4)[C@H]12)OC3=O (stereo partly drawn) [DETD-49] | > 7.5

Tested on: M10 normal mammary epithelial cells
Assay: MTT cell viability assay, M10 normal cells
Assay type: cell-based, human
Conditions: Homo sapiens, Epithelial cell, 24 h
Protocol: as §1, §2

Compound | IC50 [µM]
C=C(C)C(=O)O[C@H]1CC2=C[C@@H](C/C(C)=C/[C@H]3OC(=O)[C@@H](CN(C)C)[C@H]13)OC2=O [DETD-1] | > 7.5
C=C1C(=O)OC2CC3=C[C@@H](C/C(C)=C/C(OC(=O)C=C(C)C)[C@H]12)OC3=O (stereo partly drawn) [DETD-8] | > 7.5
C=C1C(=O)OC2CC3=C[C@@H](C/C(C)=C/C(OC(=O)/C=C/c4ccc(OC)c(OC)c4)[C@H]12)OC3=O (stereo partly drawn) [DETD-49] | > 7.5

Tested on: B16-F10 (NRAS mutation)
Assay: MTT cell viability assay, B16-F10 melanoma
Assay type: cell-based
Conditions: Mus musculus, B16-F10, 24 h, 24 h, read-out: IC50 on cell viability, B16-F10 (NRAS mutation)
Protocol: as §1
(§3) Several genes are involved in melanoma development and pathology; specifically, mutation in V-raf murine sarcoma viral oncogene homolog B1 (B-RAF) occurs approximately 50-60% and in neuroblastoma RAS viral oncogene homolog (N-RAS) occurs about 30% of malignant melanomas. A spectrum of wild-type or mutated melanoma cell lines including B16-F10, MeWo, A375, A2058, HTB-68, and melanocyte were used to study anti-melanoma cell proliferation activity of parental phytocompound DET and newly synthesized DETDs.

Compound | IC50 [µM]
C=C(C)C(=O)O[C@H]1CC2=C[C@@H](C/C(C)=C/[C@H]3OC(=O)[C@@H](CN(C)C)[C@H]13)OC2=O [DETD-1] | > 10
C=C1C(=O)OC2CC3=C[C@@H](C/C(C)=C/C(OC(=O)C=C(C)C)[C@H]12)OC3=O (stereo partly drawn) [DETD-8] | 6.8
C=C1C(=O)OC2CC3=C[C@@H](C/C(C)=C/C(OC(=O)/C=C/c4ccc(OC)c(OC)c4)[C@H]12)OC3=O (stereo partly drawn) [DETD-49] | > 10

Tested on: MeWo (No NRAS or BRAF mutation)
Assay: MTT cell viability assay, MeWo melanoma
Assay type: cell-based, human
Conditions: Homo sapiens, MeWo, 24 h
Protocol: as §1, §3

Compound | IC50 [µM]
C=C(C)C(=O)O[C@H]1CC2=C[C@@H](C/C(C)=C/[C@H]3OC(=O)[C@@H](CN(C)C)[C@H]13)OC2=O [DETD-1] | > 10
C=C1C(=O)OC2CC3=C[C@@H](C/C(C)=C/C(OC(=O)C=C(C)C)[C@H]12)OC3=O (stereo partly drawn) [DETD-8] | > 10
C=C1C(=O)OC2CC3=C[C@@H](C/C(C)=C/C(OC(=O)/C=C/c4ccc(OC)c(OC)c4)[C@H]12)OC3=O (stereo partly drawn) [DETD-49] | > 10

Tested on: HTB-68 (NRAS mutation)
Assay: MTT cell viability assay, HTB-68 melanoma
Assay type: cell-based, human
Conditions: Homo sapiens, 24 h
Protocol: as §1, §3

Compound | IC50 [µM]
C=C(C)C(=O)O[C@H]1CC2=C[C@@H](C/C(C)=C/[C@H]3OC(=O)[C@@H](CN(C)C)[C@H]13)OC2=O [DETD-1] | > 10
C=C1C(=O)OC2CC3=C[C@@H](C/C(C)=C/C(OC(=O)C=C(C)C)[C@H]12)OC3=O (stereo partly drawn) [DETD-8] | > 10
C=C1C(=O)OC2CC3=C[C@@H](C/C(C)=C/C(OC(=O)/C=C/c4ccc(OC)c(OC)c4)[C@H]12)OC3=O (stereo partly drawn) [DETD-49] | > 10

Tested on: A2058 (BRAF mutation)
Assay: MTT cell viability assay, A2058 melanoma
Assay type: cell-based, human
Conditions: Homo sapiens, A2058, 24 h
Protocol: as §1, §3

Compound | IC50 [µM]
C=C(C)C(=O)O[C@H]1CC2=C[C@@H](C/C(C)=C/[C@H]3OC(=O)[C@@H](CN(C)C)[C@H]13)OC2=O [DETD-1] | > 10
C=C1C(=O)OC2CC3=C[C@@H](C/C(C)=C/C(OC(=O)C=C(C)C)[C@H]12)OC3=O (stereo partly drawn) [DETD-8] | > 10
C=C1C(=O)OC2CC3=C[C@@H](C/C(C)=C/C(OC(=O)/C=C/c4ccc(OC)c(OC)c4)[C@H]12)OC3=O (stereo partly drawn) [DETD-49] | > 10

Tested on: A375 (BRAF mutation)
Assay: MTT cell viability assay, A375 melanoma
Assay type: cell-based, human
Conditions: Homo sapiens, A-375, 24 h, 24 h, MTT; read-out: IC50 on cell viability, A375 (BRAF mutation)
Protocol: as §1, §3
To investigate whether or not DETD-35 show synergism with PLX4032 against A375 melanoma cells, we performed anti-proliferation assay using MTT reagent to obtain IC50 of each compound. […] The synergistic effect was quantified by combination index (CI) analysis as stated above.

Compound | IC50 [µM]
C=C(C)C(=O)O[C@H]1CC2=C[C@@H](C/C(C)=C/[C@H]3OC(=O)[C@@H](CN(C)C)[C@H]13)OC2=O [DETD-1] | > 10
C=C1C(=O)OC2CC3=C[C@@H](C/C(C)=C/C(OC(=O)C=C(C)C)[C@H]12)OC3=O (stereo partly drawn) [DETD-8] | > 10
C=C1C(=O)OC2CC3=C[C@@H](C/C(C)=C/C(OC(=O)/C=C/c4ccc(OC)c(OC)c4)[C@H]12)OC3=O (stereo partly drawn) [DETD-49] | 4.9

Tested on: Melanocyte (Normal cells)
Assay: MTT cell viability assay, normal melanocytes
Assay type: cell-based, human
Conditions: Homo sapiens, Melanocyte, 24 h
Protocol: as §1, §3

Compound | IC50 [µM]
C=C(C)C(=O)O[C@H]1CC2=C[C@@H](C/C(C)=C/[C@H]3OC(=O)[C@@H](CN(C)C)[C@H]13)OC2=O [DETD-1] | > 10
C=C1C(=O)OC2CC3=C[C@@H](C/C(C)=C/C(OC(=O)C=C(C)C)[C@H]12)OC3=O (stereo partly drawn) [DETD-8] | > 10
C=C1C(=O)OC2CC3=C[C@@H](C/C(C)=C/C(OC(=O)/C=C/c4ccc(OC)c(OC)c4)[C@H]12)OC3=O (stereo partly drawn) [DETD-49] | > 10

Tested on: RAW264.7 (normal macrophage)
Assay: MTT cell viability assay, RAW264.7 macrophages
Assay type: cell-based, mouse
Conditions: Mus musculus, RAW264.7, 24 h
Protocol: as §1
(§4) Marcophages (2×10^5 cells/well in 96-well plate) were treated with compounds for 1 h, then incubated further for 24 h with or without the presence of […] LPS in the cultural medium. Nitrite levels in cell culture medium were determined by the Griess reaction method. In parallel to the Griess assays, macrophage cell viabilities were determined using the MTT based colorimetric assay.

Compound | IC50 [µM]
C=C(C)C(=O)O[C@H]1CC2=C[C@@H](C/C(C)=C/[C@H]3OC(=O)[C@@H](CN(C)C)[C@H]13)OC2=O [DETD-1] | > 10
C=C1C(=O)OC2CC3=C[C@@H](C/C(C)=C/C(OC(=O)C=C(C)C)[C@H]12)OC3=O (stereo partly drawn) [DETD-8] | > 10
C=C1C(=O)OC2CC3=C[C@@H](C/C(C)=C/C(OC(=O)/C=C/c4ccc(OC)c(OC)c4)[C@H]12)OC3=O (stereo partly drawn) [DETD-49] | > 10

Tested on: LPS-induced nitric oxide (NO) production in RAW 264.7 cells
Assay: Nitric oxide production in LPS-stimulated macrophages (Griess)
Assay type: cell-based, mouse
Conditions: Mus musculus; LPS-stimulated RAW264.7, nitrite 24 h after LPS
Protocol: as §4
LPS from the outer membrane of Gram-negative bacteria can induce mRNA or protein levels of inducible nitric oxide synthase (iNOS), which catalyzes oxidative deamination of L-arginine to produce nitric oxide (NO). Once NO is predominantly produced, it interacts with superoxide anion and generates highly reactive oxidants resulting in cellular inflammation, DNA, protein and tissue damages, carcinogenesis, and antiapoptosis. We used in vitro LPS stimulated inflammation in RAW264.7 cell system to evaluate the effect of DET and its derivatives DETDs on NO production by determination of nitrite level (equivalent to NO level) in culture medium 24 h after LPS treatment.

Compound | IC50 [µM]
C=C(C)C(=O)O[C@H]1CC2=C[C@@H](C/C(C)=C/[C@H]3OC(=O)[C@@H](CN(C)C)[C@H]13)OC2=O [DETD-1] | 5
C=C1C(=O)OC2CC3=C[C@@H](C/C(C)=C/C(OC(=O)C=C(C)C)[C@H]12)OC3=O (stereo partly drawn) [DETD-8] | 2.5
C=C1C(=O)OC2CC3=C[C@@H](C/C(C)=C/C(OC(=O)/C=C/c4ccc(OC)c(OC)c4)[C@H]12)OC3=O (stereo partly drawn) [DETD-49] | 3.4
